This note sets out measurements from ChEMBL document CHEMBL4421722, “Inhibitors of protein prenyltransferases” (2013).

The species named for the assay is Rattus norvegicus. Nature of the assay: Inhibition of rat recombinant geranylgeranyltransferase type I expressed in Escherichia coli assessed as residual enzyme activity for geranylgeranylation of K-Ras4B at 50 uM incubated for 30 mins in presence of [3H]GGPP by scintillation counting assay relative to control.
As to `Cc1ccc([C@H]2C(C(=O)O)=CC[C@@H](c3ccc(Cl)cc3)N2S(=O)(=O)c2ccccc2C)cc1`, the Activity stood at 61.6%.

For the compound `CCCS[C@@H]1C[C@@H](c2ccc(OCC)cc2)N(S(=O)(=O)c2ccc(C)cc2)C[C@H]1C(=O)O`, the Activity was found to be 84.9%.

For the compound `Cc1ccc(S[C@@H]2C[C@@H](c3ccc(C)cc3)N(S(=O)(=O)c3ccc(Cl)cc3)C[C@H]2C(=O)O)cc1`, the Activity turned out to be 92.4%.

As to `COc1ccc([C@@H]2C[C@@H](SCCC(C)C)[C@H](C(=O)O)CN2S(=O)(=O)c2ccc(Cl)cc2)cc1`, the Activity was 81.4%.

For `CS(=O)(=O)N1[C@@H](c2ccc(F)cc2)C(C(=O)O)=CC[C@H]1c1ccc(Cl)cc1`, the Activity was 50.2%.

For the compound `COc1cccc([C@@H]2C[C@@H](Sc3ccc(Cl)cc3)[C@H](C(=O)O)CN2S(=O)(=O)c2ccc(C)cc2)c1`, the Activity is 60.3%.

For the compound `Cc1ccc([C@@H]2C[C@@H](SC3CCCC3)[C@H](C(=O)O)CN2S(=O)(=O)c2ccccc2C)cc1`, the Activity came to 93.5%.

`Cc1ccc(S(=O)(=O)N2[C@@H](c3ccc(C(C)(C)C)cc3)C(C(=O)O)=CC[C@H]2c2ccc(Cl)c(Cl)c2)cc1`: the Activity amounted to 74.3%.

Regarding `COc1ccc(S[C@@H]2C[C@@H](c3ccc(C)cc3)N(S(=O)(=O)c3ccc(Cl)cc3)C[C@H]2C(=O)O)cc1`, the Activity amounted to 82.7%.

For `COc1ccc([C@@H]2CC=C(C(=O)O)[C@H](c3ccc(Cl)cc3)N2S(=O)(=O)c2ccc(Cl)cc2)cc1`, the Activity worked out at 72.6%.

`COc1ccc([C@@H]2CC=C(C(=O)O)[C@H](c3cccc(Cl)c3)N2S(=O)(=O)c2ccc(Cl)cc2)cc1`: the Activity was 53.2%.

Take `Cc1ccc([C@@H]2C[C@@H](SC3CCCC3)[C@H](C(=O)O)CN2S(=O)(=O)c2ccc(C)cc2)cc1`: the Activity was found to be 87.8%.

For the compound `CCCCS[C@@H]1C[C@@H](c2cc(OC)c(OC)c(OC)c2)N(S(=O)(=O)c2ccc(C)cc2)C[C@H]1C(=O)O`, the Activity came to 73.5%.

Consider `Cc1ccc(S(=O)(=O)N2[C@@H](c3cccc(C)c3)C(C(=O)O)=CC[C@H]2c2ccc(C#N)cc2)cc1`, for which the Activity is 66.7%.

For `Cc1ccc([C@@H]2C[C@@H](SCCc3ccccc3)[C@H](C(=O)O)CN2S(C)(=O)=O)cc1`, the Activity came to 76.9%.

Consider `Cc1ccc([C@@H]2CC=C(C(=O)O)[C@H](c3ccc(Br)cc3)N2S(=O)(=O)c2ccccc2C)cc1`, for which the Activity is 82%.

With `Cc1ccc(S(=O)(=O)N2[C@@H](c3cccc(F)c3)C(C(=O)O)=CC[C@H]2c2ccc(Cl)cc2)cc1`, the Activity was 76.2%.

For the compound `C=CCS[C@@H]1C[C@@H](c2ccc(OC)cc2)N(S(=O)(=O)c2ccc(Cl)cc2)C[C@H]1C(=O)O`, the Activity came to 95.4%.

As for `Cc1ccc(S[C@@H]2C[C@@H](c3ccc(C)cc3)N(S(C)(=O)=O)C[C@H]2C(=O)O)cc1`, the Activity turned out to be 108%.

On to `Cc1ccc(S(=O)(=O)N2[C@@H](c3cccc(Br)c3)C(C(=O)O)=CC[C@H]2c2cccc(F)c2)cc1`, for which the Activity worked out at 67.1%.

As for `Cc1ccc(S(=O)(=O)N2C[C@@H](C(=O)O)[C@H](SCC(C)C)C[C@H]2c2ccccc2F)cc1`, the Activity stood at 56.8%.

Consider `COC(=O)c1ccccc1S(=O)(=O)N1[C@@H](c2cccc(C)c2)C(C(=O)O)=CC[C@H]1c1ccc(C)cc1`, for which the Activity was 54.2%.

Take `CS(=O)(=O)N1[C@@H](c2cccc(Br)c2)C(C(=O)O)=CC[C@H]1c1ccccc1`: the Activity stood at 63.5%.

In the case of `COc1ccc([C@@H]2CC=C(C(=O)O)[C@H](c3cccc(C)c3)N2S(=O)(=O)c2ccccc2C)cc1`, the Activity came out at 61.3%.

As for `Cc1ccc([C@@H]2CC=C(C(=O)O)[C@H](c3ccc(F)cc3)N2S(=O)(=O)c2ccc(C)cc2)cc1`, the Activity was 67.7%.

Consider `Cc1ccc([C@@H]2CC=C(C(=O)O)[C@H](c3ccc(Cl)cc3)N2S(C)(=O)=O)cc1`, for which the Activity is 79.1%.

As for `CCCCCCS[C@@H]1C[C@@H](c2ccc(CC)cc2)N(S(=O)(=O)c2ccc(C)cc2)C[C@H]1C(=O)O`, the Activity is 70%.

As for `COc1ccc([C@@H]2C[C@@H](Sc3ccc(C)cc3)[C@H](C(=O)O)CN2S(=O)(=O)c2ccc(C)cc2)cc1`, the Activity was 91.8%.

`COc1ccc([C@@H]2CC=C(C(=O)O)[C@H](c3ccc(C)cc3)N2S(=O)(=O)c2ccccc2C)cc1`: the Activity is 86%.

Regarding `Cc1ccc([C@@H]2CC=C(C(=O)O)[C@H](c3cccc(Cl)c3)N2S(=O)(=O)c2ccccc2)cc1`, the Activity worked out at 56.7%.

Consider `C=CCS[C@@H]1C[C@@H](c2cccc(Cl)c2)N(S(=O)(=O)c2ccc(C)cc2)C[C@H]1C(=O)O`, for which the Activity was 46.3%.

As to `CCOc1ccc([C@@H]2C[C@@H](Sc3ccc(C)cc3)[C@H](C(=O)O)CN2S(=O)(=O)c2ccc(C)cc2)cc1`, the Activity amounted to 65.4%.

Turning to `Cc1ccc(S[C@@H]2C[C@@H](c3cccc(Br)c3)N(S(=O)(=O)c3ccc(C)cc3)C[C@H]2C(=O)O)cc1`, the Activity turned out to be 94%.

As for `CCCCCS[C@@H]1C[C@@H](c2ccc(CC)cc2)N(S(=O)(=O)c2ccc(C)cc2)C[C@H]1C(=O)O`, the Activity worked out at 65.8%.

In the case of `CCOc1ccc([C@@H]2CC=C(C(=O)O)[C@H](c3cccc(Br)c3)N2S(=O)(=O)c2ccc(C)cc2)cc1`, the Activity was found to be 78.4%.

Turning to `Cc1ccc(S(=O)(=O)N2[C@@H](c3ccc(Br)cc3)C(C(=O)O)=CC[C@H]2c2ccccc2F)cc1`, the Activity was 72.8%.

On to `CCc1ccc([C@@H]2C[C@@H](SCc3ccc(Cl)cc3)[C@H](C(=O)O)CN2S(=O)(=O)c2ccc(C)cc2)cc1`, for which the Activity worked out at 43.7%.

On to `CCc1ccc([C@@H]2C[C@@H](SCc3ccc(C(C)(C)C)cc3)[C@H](C(=O)O)CN2S(=O)(=O)c2ccc(C)cc2)cc1`, for which the Activity was 64.4%.

As to `COc1cccc([C@@H]2CC=C(C(=O)O)[C@H](c3ccc(C)cc3)N2S(=O)(=O)c2ccc(C)cc2)c1`, the Activity came out at 63.1%.

Consider `Cc1ccc(S(=O)(=O)N2C[C@@H](C(=O)O)[C@H](SCc3ccc(Cl)cc3)C[C@H]2c2ccc3c(c2)OCO3)cc1`, for which the Activity was 37.4%.

`COc1ccc(S[C@@H]2C[C@@H](c3ccc(OC)cc3)N(S(=O)(=O)c3ccccc3)C[C@H]2C(=O)O)cc1`: the Activity turned out to be 90.5%.

For `CCS[C@@H]1C[C@@H](c2ccc(OC)cc2)N(S(=O)(=O)c2ccccc2C)C[C@H]1C(=O)O`, the Activity was found to be 71.1%.

`CCCCCCS[C@@H]1C[C@@H](c2ccc(Cl)cc2)N(S(=O)(=O)c2ccc(C)cc2)C[C@H]1C(=O)O`: the Activity turned out to be 72.2%.

Take `Cc1ccc(S(=O)(=O)N2[C@@H](c3cccc(Cl)c3)C(C(=O)O)=CC[C@H]2c2ccc3c(c2)OCO3)cc1`: the Activity worked out at 73.9%.

For the compound `CCc1ccc([C@@H]2C[C@@H](SCc3ccccc3)[C@H](C(=O)O)CN2S(=O)(=O)c2ccc(C)cc2)cc1`, the Activity is 63.1%.

For the compound `CCCCCS[C@@H]1C[C@@H](c2ccc(OC)cc2)N(S(=O)(=O)c2ccccc2)C[C@H]1C(=O)O`, the Activity is 94.8%.

Regarding `Cc1ccc([C@@H]2C[C@@H](SC3CCCC3)[C@H](C(=O)O)CN2S(C)(=O)=O)cc1`, the Activity was 110%.

On to `COc1ccc([C@@H]2CC=C(C(=O)O)[C@H](c3cccc(Br)c3)N2S(=O)(=O)c2ccc(C)cc2)cc1`, for which the Activity is 84.5%.

Turning to `CCCS[C@@H]1C[C@@H](c2ccc(Cl)cc2)N(S(=O)(=O)c2ccc(C)cc2)C[C@H]1C(=O)O`, the Activity was determined as 71%.

`CCOc1ccc([C@@H]2C[C@@H](Sc3ccccc3)[C@H](C(=O)O)CN2S(=O)(=O)c2ccc(C)cc2)cc1`: the Activity was found to be 61.1%.

Take `COc1ccc([C@@H]2CC=C(C(=O)O)[C@H](c3ccc(Br)cc3)N2S(=O)(=O)c2ccc(Cl)cc2)cc1`: the Activity turned out to be 76.2%.

Turning to `C=CCS[C@@H]1C[C@@H](c2ccccc2)N(S(=O)(=O)c2ccc(C)cc2)C[C@H]1C(=O)O`, the Activity came to 98.9%.

As to `Cc1ccc(S(=O)(=O)N2C[C@@H](C(=O)O)[C@H](Sc3ccccc3)C[C@H]2c2ccc3c(c2)OCO3)cc1`, the Activity came out at 57.4%.

As for `COc1ccc([C@@H]2C[C@@H](SCC(C)C)[C@H](C(=O)O)CN2S(=O)(=O)c2ccc(C)cc2)cc1OC`, the Activity came out at 91.6%.

Take `Cc1ccc(S(=O)(=O)N2[C@@H](c3cccc(Cl)c3)C(C(=O)O)=CC[C@H]2c2ccc(Cl)cc2)cc1`: the Activity worked out at 59.2%.

With `COc1ccc([C@@H]2CC=C(C(=O)O)[C@H](c3ccc(Br)cc3)N2S(=O)(=O)c2ccc(C)cc2)cc1`, the Activity amounted to 72.1%.

As to `COc1ccc([C@@H]2CC=C(C(=O)O)[C@H](c3cccc(Cl)c3)N2S(=O)(=O)c2ccc(C)cc2)cc1OC`, the Activity stood at 87.8%.

`Cc1ccc([C@@H]2C[C@@H](SCCC(C)C)[C@H](C(=O)O)CN2S(=O)(=O)c2ccccc2)cc1`: the Activity was determined as 79.3%.

`Cc1ccc(S(=O)(=O)N2[C@@H](c3cccc(F)c3)C(C(=O)O)=CC[C@H]2c2ccc(C#N)cc2)cc1`: the Activity turned out to be 88.3%.

Turning to `CCS[C@@H]1C[C@@H](c2ccccc2F)N(S(=O)(=O)c2ccc(C)cc2)C[C@H]1C(=O)O`, the Activity was 89.4%.

Take `Cc1ccc(S(=O)(=O)N2C[C@@H](C(=O)O)[C@H](SCC(C)C)C[C@H]2c2ccc(Cl)cc2)cc1`: the Activity is 86.8%.

Consider `CCS[C@@H]1C[C@@H](c2ccc3c(c2)OCO3)N(S(=O)(=O)c2ccc(C)cc2)C[C@H]1C(=O)O`, for which the Activity came out at 91.5%.

Consider `Cc1ccc([C@@H]2CC=C(C(=O)O)[C@H](c3ccc(F)cc3)N2S(=O)(=O)c2ccccc2C)cc1`, for which the Activity was 50.9%.

Regarding `Cc1ccc([C@H]2C(C(=O)O)=CC[C@@H](c3cccc(F)c3)N2S(=O)(=O)c2ccc(C)cc2)cc1`, the Activity turned out to be 81.3%.

Turning to `Cc1ccc([C@@H]2CC=C(C(=O)O)[C@H](c3cccc(Br)c3)N2S(=O)(=O)c2ccccc2C)cc1`, the Activity came out at 50%.

In the case of `Cc1ccc(S(=O)(=O)N2[C@@H](c3cccc(Br)c3)C(C(=O)O)=CC[C@H]2c2ccc(C#N)cc2)cc1`, the Activity stood at 93.5%.

Turning to `Cc1ccc(S(=O)(=O)N2[C@@H](c3ccc(C(C)(C)C)cc3)C(C(=O)O)=CC[C@H]2c2ccc(C(C)C)cc2)cc1`, the Activity stood at 88.3%.

For the compound `COc1ccc([C@@H]2C[C@@H](SCc3ccc(C(C)(C)C)cc3)[C@H](C(=O)O)CN2S(=O)(=O)c2ccc(Cl)cc2)cc1`, the Activity came to 66%.

For `Cc1ccc([C@@H]2CC=C(C(=O)O)[C@H](c3ccc(Cl)cc3)N2S(=O)(=O)c2ccc(Cl)cc2)cc1`, the Activity stood at 63.8%.
